Reference: US8759387B2, “Arylalkylamine compound and process for preparing the same” (Mitsubishi Tanabe Pharma Corporation, priority 2004, dated 2014)
Counter-ions that a name gives are not always drawn.

Legend:
[1] = molecular target: T1, human CaSR (Homo sapiens, UniProt P41180); experiment: CaSR activating effect, in vitro test using CaSR expressing cells (intracellular calcium, Fura-2/FDSS); format: cell-based; details: CHO cells stably expressing human CaSR and Gα16; change in intracellular calcium concentration
T1 construct: the full length cDNA encoding CaSR was obtained first as three divisional parts; expressed in transfected cells
T1 sequence (P41180 20-1078): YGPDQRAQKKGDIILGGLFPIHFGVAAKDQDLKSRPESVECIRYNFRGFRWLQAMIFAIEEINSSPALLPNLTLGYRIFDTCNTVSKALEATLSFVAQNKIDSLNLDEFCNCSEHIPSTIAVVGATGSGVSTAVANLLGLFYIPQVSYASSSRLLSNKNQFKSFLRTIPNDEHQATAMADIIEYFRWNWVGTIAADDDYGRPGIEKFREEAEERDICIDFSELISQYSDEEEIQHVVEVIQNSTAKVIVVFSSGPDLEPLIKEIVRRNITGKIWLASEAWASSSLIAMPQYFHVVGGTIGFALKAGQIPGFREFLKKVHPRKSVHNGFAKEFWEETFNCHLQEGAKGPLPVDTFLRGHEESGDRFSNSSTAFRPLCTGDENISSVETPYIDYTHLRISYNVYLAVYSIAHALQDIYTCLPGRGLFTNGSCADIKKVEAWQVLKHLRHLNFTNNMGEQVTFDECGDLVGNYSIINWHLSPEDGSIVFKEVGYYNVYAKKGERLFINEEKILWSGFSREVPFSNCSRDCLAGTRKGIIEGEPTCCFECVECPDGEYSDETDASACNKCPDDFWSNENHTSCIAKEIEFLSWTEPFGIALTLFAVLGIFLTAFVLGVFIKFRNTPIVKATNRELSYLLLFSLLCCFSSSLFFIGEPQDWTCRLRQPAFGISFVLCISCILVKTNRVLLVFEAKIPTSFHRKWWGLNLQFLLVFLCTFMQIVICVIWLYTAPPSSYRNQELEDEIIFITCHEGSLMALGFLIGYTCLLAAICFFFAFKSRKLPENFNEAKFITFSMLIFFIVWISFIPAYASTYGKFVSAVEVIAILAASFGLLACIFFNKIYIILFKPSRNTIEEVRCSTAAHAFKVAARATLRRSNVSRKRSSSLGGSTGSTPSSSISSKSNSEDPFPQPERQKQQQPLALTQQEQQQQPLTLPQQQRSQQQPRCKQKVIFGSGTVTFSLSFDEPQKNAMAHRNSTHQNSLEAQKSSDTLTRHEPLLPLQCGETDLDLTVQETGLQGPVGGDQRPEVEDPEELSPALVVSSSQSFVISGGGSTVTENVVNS
Description: In vitro test using CaSR expressing cells
CaSR is a member of G protein-coupled receptor (GPCR). When CaSR of cells are activated by stimulating with extracellular Ca^2+ ion or an agonist (a compound having CaSR activating effect), etc., phospholipase C(PLC) is activated through G protein (Gq), and an intracellular calcium concentration is increased.
Thus, an activating effect on CaSR was examined by using CaSR expressing cell line and referring to change in an intracellular calcium concentration as an index. Preparation of cell strains and a test using the same are, more specifically, carried out as mentioned in the following (1) and (2).
(1) Acquisition of Human CaSR Expressing Cell Line
cDNA fragment encoding human CaSR was obtained from human kidney derived cDNA library by PCR.
[Primer to be Used for PCR was Designed Based on Known Nucleic Acid Sequence Information on Human CaSR (GenBank/EMBL Accession No. D50855; GenBank/EMBL Accession No. NM000388;
• Aida et al., Biochem. Biophys. Res. Commun., 214:524-529, 1995; • Garrett et al., J. Biol. Chem., 270: 12919-12925, 1995, etc.). Also, the full length cDNA encoding CaSR was obtained first as three divisional parts.]
These cDNA fragments were adequately connected to an expression vector to obtain a plasmid for expressing a functional human CaSR in animal cells.
Also, this human CaSR expression plasmid was transfected to CHO cells with a Qα16 expression plasmid α plasmid which is to express a subunit (α16) of G protein], and selected from a medium containing neomycin (G418) to obtain stable expressing cell line.
The obtained cell line stably expressed CaSR of human and α16 subunit of G protein.
(2) Measurement of Calcium Concentration in Cells
By using the CaSR expressing cell line obtained in the above-mentioned (1), change in an intracellular calcium concentration was measured at the time when the cells were stimulated in the presence or in the absence of a test compound as follows.
First, cells were collected using a cell scraper, suspended in a solution comprising Hepes buffer [10 mM Hepes (7.3), 10 mM glucose, 140 mM NaCl, 5 mM KCl, 2 mM CaCl2, 1 mM MgCl2] to which 0.1% cremophor and 3 μM Fura-2 had been added, and reacted at 37° C. for 1 hour under the conditions wherein a test compound of various concentrations (or conditions not added).
After being washed, the cells suspended in Hepes buffer were seeded to a plate (about 2×10^5 cells per 1 well of 96-well plate), and fluorescent intensity (Ratio of 340/380 nm) was measured using FDSS (Functional Drug Screening Sysytem; Hamamatsu Photonics K. K.) to examine change in intracellular calcium concentrations.
CaSR activating effect was confirmed basing on the value (change in an intracellular calcium concentration) measured in the reaction carried out in the presence of the test compound, a CaSR activating ability was confirmed.
Also, from the measured values (change in an intracellular calcium concentration) of the test compound with various concentrations, a concentration/response curve was drawn to obtain an EC50 value (concentration of agonist giving a half maximal response).

[2] = system: rat parathyroid cells; experiment: Suppressing effect on PTH production, in vitro test using rat parathyroid cells (PTH (1-84) ELISA); format: cell-based; details: primary cultured rat parathyroid cells, 1.15 mM Ca, 22 to 24 hours culture
Description: In Vitro Test Using Rat Parathyroid Cells
By using primary cultured cells prepared from the parathyroid in rats, suppressing effect on PTH production was examined according to the following in vitro test.
(1) Preparation and Culture of Rat Parathyroid Cells:
Thirty-six 10-weeks old male CD (SD) IGS rats (Crj series, grade: SPF, CHARLES RIVER LABORATORIES JAPAN, INC.) were euthanasically sacrificed under ether anesthesia, the thyroid gland together with the parathyroid glands were cut out under sterilized conditions, and preserved in ITS-containing DMEM/F-12 medium (low Ca). The parathyroid glands were separated from the obtained material under observation by stereoscopic microscope, and collected in the same medium. Next, the medium was discarded, the parathyroid glands were washed with a phosphate buffer solution (PBS(−)) containing no calcium and magnesium ions, 5 ml of a collagenase solution [PBS(−) containing 1.5 mg/ml of collagenase type IV (Gibco Co., catalogue No. 17104-019)] was added, and digested at 37° C. for 1 hour with shaking. After digestion, the enzyme solution was discarded, the parathyroid glands were quickly minced with a scalpel in a laboratory dish, and were collected in 7 ml of a collagenase solution, and digested again at 37° C. for 90 minutes with shaking.
Cell debris was removed using cell strainer, the residue was removed, and then, the cells were collected. They were washed twice with an ITS-containing DMEM/F-12 medium (low Ca) containing 5% FCS, and suspended in the same medium. The parathyroid cells were suspended at the concentration of about 5×10^4 cells/ml, and were seeded to 96-well plate (200 μl/well), and cultured (pre-culture) at 37° C. for about 24 hours in a CO2 incubator.
The ITS-containing DMEM/F-12 medium (low Ca) to be used mentioned above was prepared as follows. Ca-free DMEM (Dulbecco's modified Eagle's medium) (Gibco Co., catalogue No. 21068-028)(500 ml), F-12 (F-12 nutrient mixture; Gibco Co., catalogue No. 11765-054)(500 ml) and 10 ml of ITS (a mixture containing 5 μg/ml of insulin, 5 μg/ml of transferrin and 5 ng/ml of selenium) (ITS+Premix; BD Biosciences Co., catalogue No. 35435) were mixed. To the mixture was dissolved 3.5745 g of HEPES (NACALAI TESQUE Co., catalogue No. 17547-95), and 10 ml of 200 mM L-glutamine (Gibco Co., catalogue No. 25030-081) and 1 ml of Penicillin-Streptomycin solution (100×Penicillin-Streptomycin, liquid; Gibco Co., catalogue No. 15140-122) were added, and the resulting mixture was sterilized by filtration, and then, used. Ca concentration in the medium is about 0.15 mM.
(2) Test of Suppressing Effect on PTH Production
Rat parathyroid cells were pre-cultured as mentioned in the above (1), then, the medium was changed, and the cells were cultured for 22 to 24 hours in a medium to which a test compound and CaCl2 had been added (96-well plate, 200 μl/well). Various concentrations of the test compound and CaCl2 were added to a serum-free ITS-containing DMEM/F-12 medium (low Ca), and the resulting medium was used. When the test compound is to be added, CaCl2 was added so that the Ca concentration became 1.15 mM. […]
PTH (1-84) in the above-mentioned culture supernatant was measured by the ELISA Method, and determined as a PTH production value. […]
Based on the measured value (PTH production value), of the test compounds, the inhibition rate in PTH production was calculated. […]

Row | Molecule | EC50 [1] [µM] | IC50 [2] [nM]
1 | C[C@@H](N[C@@H]1CCCN(c2ccccn2)C1)c1cccc2ccccc12 [Example 1.077] | 0.42 | 5.3
2 | C[C@@H](N[C@H]1CCN(C(=O)Cc2ccccc2C(F)(F)F)C1)c1cccc2ccccc12 [Example 5.023] | 0.42 | < 10
3 | (S)-1-(1H-tetrazol-5-yl)pyrrolidin-3-yl-[(R)-1-(naphthalen-1-yl)ethyl]amine hydrochloride [Example 12.028] | 0.017 | 0.47
4 | C[C@@H](N[C@H]1CCN(c2ccc(S(=O)(=O)NCCN(C)C)cc2)C1)c1cccc2ccccc12 [Example 12.020] | 0.018 | 0.27
5 | C[C@@H](N[C@H]1CCN(c2ccc(C(=O)O)cc2)C1)c1cccc2ccccc12 [Example 3.001, 4-[(S)-3-[(R)-1-(naphthalen-1-yl)ethylamino]pyrrolidin-1-yl]benzoic acid hydrochloride] | 0.29 | 8
